{"source": "paper PMC4671658", "about": "“Release of 50 new, drug-like compounds and their computational target predictions for open source anti-tubercular drug discovery” (PLoS ONE, 2015)", "tested_on": "clinical isolate of M.tuberculosis resistant to isoniazid"}
{"compound": "O=C(NCc1ccco1)N1CCN(Cc2ccc(Cl)s2)CC1", "note": "[TCMDC-143653]", "values": [{"measurement": "MIC against clinical isolate resistant to isoniazid", "result": 1.6, "unit": "µM"}]}
